Experimental data from publication PMC13210772, “Dual FLT3/MAPK14 Proteolysis-Targeting Chimera (PROTAC) Induces Potent Acute Myeloid Leukemia Cell Death” (Pharmaceuticals, 2026).

How the values were obtained:
Assay type in all cases: cell-based
MAPK14 [1] = molecular target: T1, MAPK14 (Homo sapiens, UniProt Q16539); test: MAPK14 degradation, immunoblot in leukemia cells; design: endogenous in cells; host or cells: K562, RS4-11, MV4-11, MOLM-13 (A17); MV4-11 (A20); conditions: K562, RS4-11, MV4-11 and MOLM-13 cells; 50 nM MA191, 24 h
T1 sequence (Q16539 2-360 limits assumed): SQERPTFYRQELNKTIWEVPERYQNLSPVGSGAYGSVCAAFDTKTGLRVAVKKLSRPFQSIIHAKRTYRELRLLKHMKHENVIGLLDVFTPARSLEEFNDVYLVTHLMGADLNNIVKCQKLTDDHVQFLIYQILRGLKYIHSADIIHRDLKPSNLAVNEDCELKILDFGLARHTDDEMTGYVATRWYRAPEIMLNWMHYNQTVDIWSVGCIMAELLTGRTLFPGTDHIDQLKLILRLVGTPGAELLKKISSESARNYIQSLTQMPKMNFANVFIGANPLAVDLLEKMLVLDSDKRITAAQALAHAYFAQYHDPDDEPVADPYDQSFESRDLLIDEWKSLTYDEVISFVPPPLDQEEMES

MAPK14 [2] = molecular target: T1, MAPK14; test: Phosphorylation of MAPK14, immunoblot in MV4-11 cells; design: endogenous in cells; host or cells: K562, RS4-11, MV4-11, MOLM-13 (A17); MV4-11 (A20)
FLT3-ITD = molecular target: T2, FLT3-ITD (Homo sapiens, UniProt P36888, INS600HVDFREYEYD); test: Phosphorylation of FLT3-ITD, immunoblot in MV4-11 cells; design: We treated MV4-11 cells with the synthesized degraders of FLT3; endogenous in cells; host or cells: MV4-11
T2 sequence (P36888 with tags, fused parts or gaps INS600HVDFREYEYD): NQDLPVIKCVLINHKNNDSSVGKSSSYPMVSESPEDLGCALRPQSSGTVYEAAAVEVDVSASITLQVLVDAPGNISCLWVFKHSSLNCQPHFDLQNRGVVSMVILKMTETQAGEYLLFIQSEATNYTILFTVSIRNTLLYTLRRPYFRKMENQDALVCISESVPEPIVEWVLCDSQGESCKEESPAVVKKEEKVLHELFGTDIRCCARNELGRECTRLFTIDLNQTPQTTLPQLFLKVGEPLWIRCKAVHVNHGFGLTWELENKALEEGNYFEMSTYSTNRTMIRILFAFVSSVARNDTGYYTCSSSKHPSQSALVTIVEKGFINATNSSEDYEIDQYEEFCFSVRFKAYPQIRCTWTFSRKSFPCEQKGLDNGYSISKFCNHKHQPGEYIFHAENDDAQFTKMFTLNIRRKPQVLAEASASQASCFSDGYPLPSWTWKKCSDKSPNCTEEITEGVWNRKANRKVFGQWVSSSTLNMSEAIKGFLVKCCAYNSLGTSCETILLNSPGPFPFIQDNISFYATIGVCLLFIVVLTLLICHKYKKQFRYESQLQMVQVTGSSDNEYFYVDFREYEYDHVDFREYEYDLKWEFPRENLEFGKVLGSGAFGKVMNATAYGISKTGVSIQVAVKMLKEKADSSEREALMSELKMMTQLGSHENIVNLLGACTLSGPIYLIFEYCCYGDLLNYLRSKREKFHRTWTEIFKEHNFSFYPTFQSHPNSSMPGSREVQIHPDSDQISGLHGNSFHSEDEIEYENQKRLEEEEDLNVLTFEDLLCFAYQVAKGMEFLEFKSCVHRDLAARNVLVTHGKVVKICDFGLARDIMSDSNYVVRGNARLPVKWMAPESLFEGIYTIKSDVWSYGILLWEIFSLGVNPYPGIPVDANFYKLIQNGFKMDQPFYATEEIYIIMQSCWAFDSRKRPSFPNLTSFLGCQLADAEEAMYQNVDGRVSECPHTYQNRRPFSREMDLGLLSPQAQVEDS
From the text: We aimed to delineate if the FLT3 inhibitor part of MA191 acts as a MAPK14 inhibitor in MV4-11 cells. We used the phosphorylation of FLT3-ITD and the phosphorylation of MAPK14 as markers for their activation. […] This finding is consistent with the detection of MAPK14 in the kinase selectivity profiling approach (Figure 3; MAPK14 is termed p38α therein).
Figure 7 Targeting MAPK14 augments anti-leukemic effects of an inhibition of FLT3-ITD. (a) The graphs show the mRNA levels of MAPK14 in leukemia cells and normal blood cells. […] All immunoblots show data from at least two independent repetitions. (c) Model for how inhibition of various signaling pathways affects AML cells (red, cytoplasm, blue, nucleus).

Cc1ncsc1-c1ccc([C@H](C)NC(=O)[C@@H]2C[C@@H](O)CN2C(=O)[C@@H](NC(=O)[C@H]2CC[C@H](C(=O)N3CCN(CCNC(=O)c4cc(Oc5ccc(NC(=O)Nc6cc(C(C)(C)C)on6)cc5)ccn4)CC3)CC2)C(C)(C)C)cc1 [MA191, 4-(4-(3-(5-(tert-Butyl)isoxazol-3-yl)ureido)phenoxy)-N-(2-(4-(trans-4-(((S)-1-((2S,4R)-4-hydroxy-2-(((S)-1-(4-(4-methylthiazol-5-yl)phenyl)ethyl)carbamoyl)pyrrolidin-1-yl)-3,3-dimethyl-1-oxobutan-2-yl)carbamoyl)cyclohexanecarbonyl)piperazin-1-yl)ethyl)picolinamide]
MAPK14 protein level, immunoblot (MAPK14 [1]): depleted MAPK14 | phosphorylated MAPK14 (p-MAPK14) (MAPK14 [2]): loss of p-MAPK14 together with MAPK14 | phosphorylation of FLT3-ITD (FLT3-ITD): inhibited the phosphorylation of FLT3-ITD
